The record followed here is paper PMC8379256, “A xanthene derivative, DS20060511, attenuates glucose intolerance by inducing skeletal muscle-specific GLUT4 translocation in mice” (Communications Biology, 2021).

In experiment [1] the test system is isolated skeletal muscles. In words: 2-DG uptake with 100 nM insulin in isolated muscles from C57BL/6 mice. The arrangement: species or system mouse. The following applies: for 2DOG Trn / IC 2DOG / Raio (2-DG uptake relative to untreated control): isolated muscles, individual muscles #1-3; for 2DOG Trn / IC 2DOG: 2DG 1 mM, incubation 10 min. On the procedure: Arrowheads indicate the characteristic ruffled structure of the polymerized actin and actin-associated surface GLUT4. d GLUT4 translocation activity of 30 μM DS20060511 or 100 nM insulin in the presence of the actin polymerization inhibitor, Latrunculin B, at the indicated concentrations. Values shown are means ± SEM, n = 3. **P < 0.01 vs. 0 nM Latrunculin B by one-way ANOVA followed by Dunnett’s test. e Concentration-dependent insulin-stimulated GLUT4 translocation in L6-GLUT4myc myotubes with or without 30 μM DS20060511 (n = 3). f Concentration-dependent DS20060511-stimulated 2-DG uptake with 100 nM insulin in isolated muscles from C57BL/6 mice (n = 3). Values shown are means ± SEM. ***P < 0.001 by one-way ANOVA followed by Tukey’s test. g Blood glucose levels during ITT in STZ-treated C57BL/6 mice (n = 6–7). Vehicle or indicated dose of DS20060511 was given orally at the same time as 0.1 U kg^−1 insulin injection intraperitoneally. Values shown are means ± SEM. *P < 0.05 vs. vehicle by one-way ANOVA followed by Dunnett’s test. c Scale bar in all panels, 5 μm. Uncropped blots for a and b can be found in Supplementary Fig. 6.
The soleus or EDL muscle was removed from anesthetized mice (isoflurane anesthesia) that had been denied access to food overnight, and incubated with oxygenated (95% O2/5% CO2) Krebs-Henseleit Bicarbonate (KHB) buffer (118.1 mM NaCl, 4.7 mM KCl, 1.1 mM KH2PO4, 1.2 mM MgSO4, 2.5 mM CaCl2, and 25 mM NaHCO3, pH7.4) in the presence of 11.1 mM glucose at 37 °C. The muscle specimens were then treated with the indicated concentrations of the compounds in KHB buffer containing 11.1 mM glucose and 8 mM mannitol for 10 min at 37 °C. Thereafter, the muscles were rinsed with KHB buffer containing 8 mM mannitol and the compounds for 5 min at 37 °C. Lastly, the muscles were treated with the compounds in KHB buffer containing 1 mM 2-DG (with 0.3 μCi mL^−1 [^3H]-2-DG) and 8 mM mannitol (with 0.03 μCi mL^−1 [^14C]-mannitol) for 10 min at 37 °C. After the muscle specimens were washed, they were lysed with 1 N NaOH and neutralized with 1 N HCl. The ^14C- and ^3H-specific activities were counted with a liquid scintillation counter. The specific uptake of 2-DG was calculated by subtracting the nonspecific uptake of mannitol from the total 2-DG uptake. To investigate the effects of muscle contraction, muscle contraction was induced by electrical stimulation with 5 Hz (1 ms pulse duration, 100 V) for 10 min (SEN-5201, Nihon Koden, Tokyo, Japan).

In the next experiment the test system is L6-GLUT4myc myotubes. In words: In vitro cellular 2-DG uptake in L6-GLUT4myc myotubes. The following applies: for Ratio: 2-DG uptake normalized to vehicle; for A - background / A: dpm: 2-DG uptake. It counts as cell-based, rat. The protocol:
The L6-GLUT4myc rat myoblast cell line was obtained from Dr. Amira Klip and Dr. Philip Bilan, through a license granted by The Hospital for Sick Children, 555 University Avenue, Toronto, Ontario, Canada M5G 1 × 8; or purchased from Kerafast, Boston, MA (ESK202)[43]. The 3T3-L1-GLUT4myc fibroblast cell line was provided by Dr. Tomoyuki Yuasa, Tokushima University[44]. L6-GLUT4myc myoblasts were grown in MEMα (32571036, Thermo Fisher Scientific, Waltham, MA) supplemented with 10% FBS and 1% antibiotics, and then induced to differentiate into myotubes in MEMα supplemented with 2% FBS and 1% antibiotics for 5–8 days. 3T3-L1-GLUT4myc fibroblasts were induced to differentiate into adipocytes as described previously,[45] with minor modifications. Briefly, cells were grown to confluence in growth medium: DMEM (10569010, Thermo Fisher Scientific) supplemented with 10% FBS and 1% antibiotics, and then induced to differentiate into adipocytes in growth medium supplemented with 1 μM dexamethasone, 2 μM rosiglitazone, 0.5 mM isobutylmethylxanthine, and 10 μg mL^−1 insulin for 2 days. The adipocytes were then cultured in growth medium supplemented with 10 μg mL^−1 insulin for a few days before being used for the experiments.
L6-GLUT4myc myotubes and 3T3-L1-GLUT4myc adipocytes were incubated in the wells of a 24-well plate containing serum-free medium for 3 h at 37 °C and then incubated in glucose-free medium for 30 min at 37 °C. The cells were treated with the indicated concentrations of DS20060511 or insulin for 30 min at 37 °C, followed by the addition of 1 mM 2-deoxy-D-glucose (2-DG) and 0.3 μCi mL^−1 [^3H]-2-DG for 10 min. 2-DG uptake was measured with a liquid scintillation counter (Tri-Carb 2810TR, PerkinElmer, Waltham, MA) and normalized to the level in the vehicle-treated group.

Setting [2] is: DS20060511 1 μM + insulin 100 nM.
[3] abbreviates: DS20060511 10 μM + insulin 100 nM.
The mark [4] stands for this setting: insulin 100 nM alone (DS20060511 0 μM).

Where “and” joins values, the source holds several entries; their conditions need not be identical. Equal entries are not always repeated.

`COc1ccc2c(C)c(C(=O)O)ccc2c1C1C2=C(CC(C)(C)CC2=O)OC2=C1C(=O)CC(C)(C)C2` [DS20060511]: the “2-DG uptake induced by insulin, concomitant DS20060511” value in experiment [1] (100 nM insulin, isolated skeletal muscles, Fig. 4f) is on record as “additively increased”. Besides, in experiment [1] (setting [2]), the “2DOG Trn” value was 935 nmol/ml and 93.5 µM/min and 1062 nmol/ml and 106.2 µM/min and 1054 nmol/ml and 105.4 µM/min; the “IC 2DOG” value is 559 nmol/g and 682 nmol/g and 640 nmol/g; the “Raio (2-DG uptake relative to untreated control)” value is 2.70 and 3.07 and 3.04. In experiment [1] (setting [3]), the “2DOG Trn” value is 1281 nmol/ml and 128.1 µM/min and 1209 nmol/ml and 120.9 µM/min and 1137 nmol/ml and 113.7 µM/min; the “IC 2DOG” value is 656 nmol/g and 556 nmol/g and 565 nmol/g. In the experiment with L6-GLUT4myc myotubes (DS20060511 0.1 μM), the Ratio was 1.12 and 1.13 and 1.11; the A - background was 1376 dpm and 1354 dpm and 1361 dpm; the “A: dpm” value was 1481 dpm and 1459 dpm and 1466 dpm. In the experiment on L6-GLUT4myc myotubes (DS20060511 1 μM), the Ratio is 1.53 and 1.44 and 1.45; the A - background was 1752 dpm and 1767 dpm and 1863 dpm; the “A: dpm” value is 1857 dpm and 1872 dpm and 1968 dpm. In addition, in the experiment with L6-GLUT4myc myotubes (DS20060511 10 μM), the Ratio was 1.59 and 1.82 and 1.79; the A - background was 2208 dpm and 2181 dpm and 1933 dpm; the “A: dpm” value was 2313 dpm and 2286 dpm and 2038 dpm. Also, the “2-DG uptake (in words)” value in the experiment with L6-GLUT4myc myotubes (L6-GLUT4myc myotubes, Fig. 1d) was “significantly increased 2-DG uptake in a concentration-dependent manner”.

“Insulin: Insulin (Humulin, Eli Lilly) in the in vivo experiments; Insulin solution human (I9278, Sigma–Aldrich) in the in vitro experiments”: in experiment [1] (setting [4]), the “2DOG Trn” value was 573 nmol/ml and 57.3 µM/min and 622 nmol/ml and 62.2 µM/min and 629 nmol/ml and 62.9 µM/min; the “IC 2DOG” value is 376 nmol/g and 331 nmol/g and 410 nmol/g; the “Raio (2-DG uptake relative to untreated control)” value is 1.65 and 1.79 and 1.82. In the experiment with L6-GLUT4myc myotubes (Insulin 1 nM), the Ratio was 1.26 and 1.31 and 1.36; the A - background is 1594 dpm and 1651 dpm and 1530 dpm; the “A: dpm” value is 1699 dpm and 1756 dpm and 1635 dpm. Besides, in the experiment with L6-GLUT4myc myotubes (Insulin 10 nM), the Ratio is 1.62 and 1.58 and 1.67; the A - background was 1918 dpm and 2031 dpm and 1966 dpm; the “A: dpm” value was 2023 dpm and 2136 dpm and 2071 dpm. Moreover, in the experiment on L6-GLUT4myc myotubes (Insulin 100 nM), the Ratio was 1.81 and 1.94 and 2.02; the A - background was 2363 dpm and 2459 dpm and 2203 dpm; the “A: dpm” value was 2468 dpm and 2564 dpm and 2308 dpm.
